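A five-concentration, 48-hour dose response in 96-well plates underlies each endpoint, interpolated linearly between surrounding concentrations. The concentration for 50% growth inhibition is given as GI50. TGI is the concentration that stops growth completely.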
Assays:
Experiment in all cases: NCI anticancer screen, dose series, 48 h
DU-145 prostate = tested on: DU-145 prostate
OVCAR-4 ovarian = tested on: OVCAR-4 ovarian
SK-MEL-28 melanoma = tested on: SK-MEL-28 melanoma
MALME-3M melanoma = tested on: MALME-3M melanoma
HT29 colon = tested on: HT29 colon
U251 CNS = tested on: U251 CNS
PC-3 prostate = tested on: PC-3 prostate
CCRF-CEM leukemia = tested on: CCRF-CEM leukemia
UACC-62 melanoma = tested on: UACC-62 melanoma
HCT-116 colon = tested on: HCT-116 colon
OVCAR-3 ovarian = tested on: OVCAR-3 ovarian
HL-60(TB) leukemia = tested on: HL-60(TB) leukemia
TK-10 renal = tested on: TK-10 renal
CAKI-1 renal = tested on: CAKI-1 renal
HOP-62 NSCLC = tested on: HOP-62 NSCLC
SNB-75 CNS = tested on: SNB-75 CNS
SN12C renal = tested on: SN12C renal
HS 578T breast = tested on: HS 578T breast
BT-549 breast = tested on: BT-549 breast
NCI-H226 lung = tested on: NCI-H226 lung
RXF 393 renal = tested on: RXF 393 renal
MDA-MB-435 = tested on: MDA-MB-435
M14 melanoma = tested on: M14 melanoma
786-0 renal = tested on: 786-0 renal
SW-620 colon = tested on: SW-620 colon
RPMI-8226 leukemia = tested on: RPMI-8226 leukemia
SK-MEL-5 melanoma = tested on: SK-MEL-5 melanoma
NCI-H522 lung = tested on: NCI-H522 lung
T-47D breast = tested on: T-47D breast
MOLT-4 leukemia = tested on: MOLT-4 leukemia
MCF7 breast = tested on: MCF7 breast
SF-539 CNS = tested on: SF-539 CNS
KM12 colon = tested on: KM12 colon
HCC-2998 colon = tested on: HCC-2998 colon
OVCAR-5 ovarian = tested on: OVCAR-5 ovarian
EKVX NSCLC = tested on: EKVX NSCLC
COLO 205 colon = tested on: COLO 205 colon
SNB-19 CNS = tested on: SNB-19 CNS
K-562 leukemia = tested on: K-562 leukemia
OVCAR-8 ovarian = tested on: OVCAR-8 ovarian
SK-MEL-2 melanoma = tested on: SK-MEL-2 melanoma
SF-268 CNS = tested on: SF-268 CNS
UO-31 renal = tested on: UO-31 renal
IGROV1 ovarian = tested on: IGROV1 ovarian
MDA-MB-231 breast = tested on: MDA-MB-231 breast
HCT-15 colon = tested on: HCT-15 colon
A549 NSCLC = tested on: A549 NSCLC
NCI-H460 lung = tested on: NCI-H460 lung
ACHN renal = tested on: ACHN renal
NCI-H23 lung = tested on: NCI-H23 lung
UACC-257 melanoma = tested on: UACC-257 melanoma
SF-295 CNS = tested on: SF-295 CNS
NCI/ADR-RES ovarian = tested on: NCI/ADR-RES ovarian
LOX IMVI melanoma = tested on: LOX IMVI melanoma
SK-OV-3 ovarian = tested on: SK-OV-3 ovarian
SR leukemia = tested on: SR leukemia
A498 renal = tested on: A498 renal
HOP-92 NSCLC = tested on: HOP-92 NSCLC

## CC1=CC(=O)N(n2c(-c3ccccc3)n[nH]c2=O)C1=O
DU-145 prostate
  TGI: > 100 µM
OVCAR-4 ovarian
  TGI: > 100 µM
SK-MEL-28 melanoma
  TGI: > 100 µM
MALME-3M melanoma
  TGI: > 100000 nM
HT29 colon
  TGI: > 100 µM
U251 CNS
  TGI: > 100 µM
PC-3 prostate
  TGI: > 100 µM
CCRF-CEM leukemia
  TGI: > 100 µM
UACC-62 melanoma
  TGI: > 100 µM
HCT-116 colon
  TGI: > 100 µM
OVCAR-3 ovarian
  TGI: > 100 µM
HL-60(TB) leukemia
  TGI: > 100 µM
TK-10 renal
  TGI: > 100 µM
CAKI-1 renal
  TGI: > 100 µM
HOP-62 NSCLC
  TGI: > 100 µM
SNB-75 CNS
  TGI: > 100 µM
SN12C renal
  TGI: > 100 µM
HS 578T breast
  TGI: > 100 µM
BT-549 breast
  TGI: > 100 µM
NCI-H226 lung
  TGI: > 100 µM
RXF 393 renal
  TGI: > 100 µM
MDA-MB-435
  TGI: > 100 µM
M14 melanoma
  TGI: > 100 µM
786-0 renal
  TGI: > 100 µM
SW-620 colon
  TGI: > 100 µM
RPMI-8226 leukemia
  TGI: > 100 µM
SK-MEL-5 melanoma
  TGI: > 100 µM
NCI-H522 lung
  TGI: > 100 µM
T-47D breast
  TGI: > 100 µM
MOLT-4 leukemia
  TGI: > 100 µM
MCF7 breast
  TGI: > 100 µM
SF-539 CNS
  TGI: > 100 µM
KM12 colon
  TGI: > 100 µM
HCC-2998 colon
  TGI: > 100 µM
OVCAR-5 ovarian
  TGI: > 100 µM
EKVX NSCLC
  TGI: > 100 µM
COLO 205 colon
  TGI: > 100 µM
SNB-19 CNS
  TGI: > 100 µM
K-562 leukemia
  TGI: > 100 µM
OVCAR-8 ovarian
  TGI: > 100 µM
SK-MEL-2 melanoma
  TGI: > 100 µM
SF-268 CNS
  TGI: > 100 µM
UO-31 renal
  TGI: > 100 µM
IGROV1 ovarian
  TGI: > 100 µM
MDA-MB-231 breast
  TGI: > 100 µM
HCT-15 colon
  TGI: > 100 µM
A549 NSCLC
  TGI: > 100 µM
NCI-H460 lung
  TGI: > 100 µM
ACHN renal
  TGI: > 100 µM
NCI-H23 lung
  TGI: > 100 µM
UACC-257 melanoma
  TGI: > 100 µM
SF-295 CNS
  TGI: > 100 µM
NCI/ADR-RES ovarian
  TGI: > 100 µM
LOX IMVI melanoma
  TGI: > 100 µM
SK-OV-3 ovarian
  TGI: > 100 µM

## CC(C)(C)c1cc(-c2nc3ccc(N4CCN(CCO)CC4)cc3[nH]2)cc(C(C)(C)C)c1O
DU-145 prostate
  GI50: 4.08 µM
  TGI: > 100 µM
SK-MEL-28 melanoma
  GI50: 1680 nM
  TGI: 3.1 µM
MALME-3M melanoma
  GI50: 1470 nM
  TGI: 2830 nM
SR leukemia
  GI50: 2770 nM
  TGI: > 100 µM
UACC-62 melanoma
  GI50: 1730 nM
  TGI: 3.22 µM
OVCAR-3 ovarian
  GI50: 3.36 µM
  TGI: > 100 µM
HL-60(TB) leukemia
  GI50: 1840 nM
  TGI: 4.86 µM
TK-10 renal
  GI50: 4.69 µM
  TGI: > 100 µM
CAKI-1 renal
  GI50: 1970 nM
  TGI: 4.45 µM
SNB-75 CNS
  GI50: 1210 nM
  TGI: 4.55 µM
SN12C renal
  GI50: 3.77 µM
  TGI: > 100 µM
HS 578T breast
  GI50: 1730 nM
  TGI: 4.68 µM
NCI-H226 lung
  GI50: 21.5 µM
  TGI: > 100 µM
SK-MEL-5 melanoma
  GI50: 1740 nM
  TGI: 3.14 µM
T-47D breast
  GI50: 2860 nM
  TGI: > 100 µM
A498 renal
  GI50: 6.1 µM
  TGI: > 100 µM
SF-539 CNS
  GI50: 2130 nM
  TGI: 4.91 µM
COLO 205 colon
  GI50: 2210 nM
  TGI: 4.78 µM
SNB-19 CNS
  GI50: 3.48 µM
  TGI: > 100 µM
OVCAR-8 ovarian
  GI50: 6.53 µM
  TGI: > 100 µM
SK-MEL-2 melanoma
  GI50: 2390 nM
  TGI: 5.73 µM
HOP-92 NSCLC
  GI50: 1410 nM
  TGI: 4.44 µM
IGROV1 ovarian
  GI50: 3.25 µM
  TGI: > 100 µM
HCT-15 colon
  GI50: 1550 nM
  TGI: 3.05 µM
A549 NSCLC
  GI50: 3.51 µM
  TGI: > 100 µM
ACHN renal
  GI50: 3.39 µM
  TGI: > 100 µM
NCI-H23 lung
  GI50: 4.65 µM
  TGI: > 100 µM
NCI/ADR-RES ovarian
  GI50: > 100 µM
  TGI: > 100 µM
LOX IMVI melanoma
  GI50: 1860 nM
  TGI: 3.43 µM
SK-OV-3 ovarian
  GI50: 12.7 µM
  TGI: 86.1 µM

From PubChem BioAssay (NCI)
